Test results reported in patent US11213542B2, “Method and agent for lowering total cholesterol levels and for improving blood lipid spectrum composition” (BIOGIX, INC., priority 2018, dated 2022).
Where two headings read alike, the source gives them in different places. Marks after values point to notes of the source that are not given here.

Test system: patients with abnormal levels of lipid spectrum
[1] = Visit 1 (baseline), 4000 mg vitamin PP daily for 5 days
[2] = Visit 2 (5 days of supplementation), 4000 mg vitamin PP daily
[3] = Visit 3 (10 days after last dose), 15 days, 4000 mg vitamin PP daily for 5 days
[4] = Visit 4 (30 days after last dose), 35 days, 4000 mg vitamin PP daily for 5 days

Compound: O=C(O)c1cccnc1 [PP, vitamin PP]
- patients dropped out due to side effects (3rd day of the trial): 1 patients
- effect on lipid spectrum (in words) (4000 mg vitamin PP daily, 5 days): quickly lowers TC and LDL, without significantly changing the rest of the lipid spectrum parameters
- patients dropped out due to side effects (4th day of the trial): 3 patients
- patients dropped out due to adverse effects (PP group, 4000 mg vitamin PP daily, 5 days): 12%
- HDL (high density lipoproteins) [1]: 0.98 mmol/L
- LDL (low density lipoproteins) [1]: 3.13 mmol/L
- La (lipoprotein a) [1]: 36.75 mg/dL
- TC (total cholesterol) [1]: 6.77 mmol/L
- TG (triglycerides) [1]: 2.35* mmol/L
- VLDL (very low density lipoproteins) [1]: 1.14 mmol/L
- HDL (high density lipoproteins) [2]: 0.99 mmol/L
- LDL (low density lipoproteins) [2]: 2.58 mmol/L
- La (lipoprotein a) [2]: 38.39 mg/dL
- TC (total cholesterol) [2]: 5.99 mmol/L
- TG (triglycerides) [2]: 2.40 mmol/L
- VLDL (very low density lipoproteins) [2]: 1.11 mmol/L
- HDL (high density lipoproteins) [3]: 0.95 mmol/L
- LDL (low density lipoproteins) [3]: 2.97 mmol/L
- La (lipoprotein a) [3]: 37.40 mg/dL
- TC (total cholesterol) [3]: 6.12 mmol/L
- TG (triglycerides) [3]: 2.33 mmol/L
- VLDL (very low density lipoproteins) [3]: 1.15 mmol/L
- HDL (high density lipoproteins) [4]: 0.99 mmol/L
- LDL (low density lipoproteins) [4]: 3.18 mmol/L
- La (lipoprotein a) [4]: 37.29 mg/dL
- TC (total cholesterol) [4]: 6.81 mmol/L
- TG (triglycerides) [4]: 2.37 mmol/L
- VLDL (very low density lipoproteins) [4]: 1.16 mmol/L
- duration of efficacy (after 5-day course of 4000 mg vitamin PP daily): ≤ 10 days
- patients dropped out due to side effects (second day of the trial): 2 patients
